Data published in US11613547B2 (priority 2019, dated 2023).
Entries after “also recorded” stand apart in the source; their conditions may differ.

Tests used:
hMOR [1] = target: T1, hMOR (Homo sapiens, UniProt P35372); test: cell-based; format: cell-based; details: for Emax: HEK-293T, read-out: Gi Emax hMOR; for EC50: read-out: Gi EC50 hMOR
T1 construct: expressed in transfected cells; host or cells: HEK 293T (ATCC CRL-11268), transient

hMOR [2] = target: T1, hMOR; test: Tango β-arrestin recruitment assay, hMOR; format: cell-based
hKOR [3] = target: T2, hKOR (Homo sapiens, UniProt P41145); test: cAMP inhibition assay (GloSensor, HEK 293T), hKOR; format: cell-based; details: for Emax: HEK-293T, read-out: Gi Emax hKOR; for Bias factor toward G protein, hKOR: cAMP inhibition vs Tango, against U50,488H as control
T2 construct: expressed in transfected cells; host or cells: HEK 293T (ATCC CRL-11268), transient

hKOR [4] = target: T2, hKOR; test: Tango β-arrestin recruitment assay, hKOR; format: cell-based; details: for Arrestin pEC50±SEM hKOR / EC50: Tango, WT-hKOR
mMOR [5] = target: T3, mMOR (Mus musculus, UniProt P42866); test: Radioligand competition binding ([125I]IBNtxA), CHO membranes, mMOR; details: vs 125IBNtxA (0.1 nM), mean ± SEM
T3 construct: expressed in transfected cells

mKOR [6] = target: T4, mKOR (Mus musculus, UniProt P33534); test: Radioligand competition binding ([125I]IBNtxA), CHO membranes, mKOR; details: vs 125IBNtxA (0.1 nM), mean ± SEM
T4 construct: expressed in transfected cells

mDOR [7] = target: T5, mDOR (Mus musculus, UniProt P32300); test: Radioligand competition binding ([125I]IBNtxA), CHO membranes, mDOR; details: vs 125IBNtxA (0.1 nM), CHO membranes, mean ± SEM
T5 construct: expressed in transfected cells

mMOR [8] = target: T3, mMOR; test: [35S]GTPγS functional assay, mMOR; format: biochemical
mKOR [9] = target: T4, mKOR; test: [35S]GTPγS functional assay, mKOR; format: biochemical
mDOR [10] = target: T5, mDOR; test: [35S]GTPγS functional assay, mDOR; format: biochemical
[11] = target: T6, mouse mu opioid receptor (mMOR) (Mus musculus, UniProt P42866); test: cell-based; format: cell-based
T6 construct: expressed in transfected cells; host or cells: HEK-293T, transient (PEI), with BRET sensor cDNAs

[12] = target: T6, mouse mu opioid receptor (mMOR); test: cell-based; format: cell-based; remark: listed apart in the source
[13] = target: T7, rat kappa opioid receptor (rKOR) (Rattus norvegicus, UniProt P34975); test: BRET assay, G-protein activation, rKOR; format: cell-based
T7 construct: expressed in transfected cells; host or cells: HEK-293T, transient (PEI), with BRET sensor cDNAs

[14] = target: T7, rat kappa opioid receptor (rKOR); test: BRET assay, arrestin recruitment, rKOR; format: cell-based; details: BRET
[15] = target: T8, mouse delta opioid receptor (mDOR) (Mus musculus, UniProt P32300); test: BRET assay, G-protein activation, mDOR; format: cell-based
T8 construct: expressed in transfected cells; host or cells: HEK-293T, transient (PEI), with BRET sensor cDNAs

hDOR [16] = target: T9, hDOR (Homo sapiens, UniProt P41143); test: cAMP inhibition assay, hDOR; format: cell-based; parameters: expressed in transfected cells
hDOR [17] = target: T9, hDOR; test: Tango β-arrestin recruitment assay, hDOR; format: cell-based; parameters: expressed in transfected cells; host or cells: HTLA cells expressing TEV fused-beta-Arrestin2

SMILES: NCc1ccc(C(=O)N[C@@H]2CC[C@H]3[C@H]4Cc5ccc(O)c6c5[C@@]3(CCN4CC3CC3)[C@H]2O6)cc1 [MP1209, 4-(aminomethyl)-N-((4R,4aR,7R,7aR,12bS)-3-(cyclopropylmethyl)-9-hydroxy-2,3,4,4a,5,6,7,7a-octahydro-1H-4,12-methano[1]benzofuro[3,2-e]isoquinolin-7-yl)benzamide]
- Gi pEC50±SEM hMOR (hMOR [1]): 9.61±0.04
- Emax (hMOR [1]): 98.5 ± 0.96%
- EC50 (hMOR [1]): 0.25 nM
- arrestin recruitment at hMOR (hMOR [2]; Tango): null arrestin recruitment; also recorded: no arrestin recruitment was observed
- Emax (hKOR [3]): 100 ± 1.23%
- Gi pEC50±SEM hKOR (hKOR [3]; cAMP inhibition): 10.6±0.05
- Bias factor toward G protein, hKOR (hKOR [3]): 0.6
- EC50 (hKOR [3]; cAMP inhibition, read-out: Gi EC50 hKOR): 0.024 nM
- Emax (hKOR [4]): 67 ± 3%
- Arrestin pEC50±SEM hKOR (hKOR [4]): 9.43±0.19
- EC50 (hKOR [4]): 0.37 nM

SMILES: O=C(N[C@@H]1CC[C@H]2[C@H]3Cc4ccc(O)c5c4[C@@]2(CCN3CC2CC2)[C@H]1O5)c1cccc(CO)c1 [MP1210, N-((4R,4aR,7R,7aR,12bS)-3-(cyclopropylmethyl)-9-hydroxy-2,3,4,4a,5,6,7,7a-octahydro-1H-4,12-methano[1]benzofuro[3,2-e]isoquinolin-7-yl)-3-(hydroxymethyl)benzamide]
- Gi pEC50±SEM hMOR (hMOR [1]): 9.81±0.05
- Emax (hMOR [1]): 94.6 ± 0.98%
- EC50 (hMOR [1]): 0.15 nM
- arrestin recruitment at hMOR (hMOR [2]; Tango): null arrestin recruitment; also recorded: no arrestin recruitment was observed
- Emax (hKOR [3]): 101 ± 1.1%
- Gi pEC50±SEM hKOR (hKOR [3]; cAMP inhibition): 10.6±0.05
- Bias factor toward G protein, hKOR (hKOR [3]): 1.2
- Emax (hKOR [4]): 63 ± 3.3%
- Arrestin pEC50±SEM hKOR (hKOR [4]): 8.94±0.17

SMILES: CO[C@@]12CC[C@@H](NC(=O)c3cccc(I)c3)C3Oc4c(O)ccc5c4[C@@]31CCN(CC1CC1)C2C5 (stereo partly drawn) [MP1305, N-((4aS,7R,12bS)-3-(Cyclopropylmethyl)-9-hydroxy-4a-methoxy-2,3,4,4a,5,6,7,7a-octahydro-1H-4,12-methanobenzofuro[3,2-e]isoquinolin-7-yl)-3-iodobenzamide]
- Ki (mMOR [5]): 0.25 ± 0.02 nM
- Ki (mKOR [6]): 2.5 ± 0.3 nM
- Ki (mDOR [7]): 11.7 ± 1.4 nM
- Emax (mMOR [8]): 81.2 ± 16%
- EC50 (mMOR [8]; [35S]GTPγS, nM ± SEM): 0.7 ± 0.1 nM
- Emax (mKOR [9]): 42.2 ± 5.3%
- EC50 (mKOR [9]; [35S]GTPγS, nM ± SEM): 7.4 ± 1.8 nM
- Emax (mDOR [10]): 22 ± 0.9%
- EC50 (mDOR [10]; [35S]GTPγS, nM ± SEM): 31.7 ± 3.6 nM
- Bias factor toward G protein, hMOR (hMOR [1]): 11
- Gi pEC50±SEM hMOR (hMOR [1]): 9.9±0.12
- Emax (hMOR [1]): 69 ± 1.8%
- EC50 (hMOR [1]): 0.12 nM
- Emax (hMOR [2]): 21 ± 3%
- Arrestin pEC50±SEM hMOR (hMOR [2]; Tango): 7.8±0.3
- EC50 (hMOR [2]; Tango): 16.4 nM
- Emax (hKOR [3]): 102 ± 1.2%
- Gi pEC50±SEM hKOR (hKOR [3]; cAMP inhibition): 9.14±0.05
- Bias factor toward G protein, hKOR (hKOR [3]): 4
- Emax (hKOR [4]): 75 ± 1%
- Arrestin pEC50±SEM hKOR (hKOR [4]): 7.6±0.04
- EC50 (hKOR [4]): 25.7 nM
- Gi pEC50±SEM mMOR [11]: 9.1±0.12
- EC50 ([11]; read-out: Gi EC50 mMOR): 0.74 nM
- Emax ([11]; read-out: Gi Emax mMOR): 72 ± 2%
- arrestin recruitment at mMOR [12]: no arrestin recruitment was observed
- Gi pEC50±SEM rKOR ([13]; BRET): 8.3±0.32
- Emax ([13]; read-out: Gi Emax rKOR): 35 ± 3%
- arrestin recruitment at rKOR [14]: no arrestin recruitment was observed
- EC50 ([15]; mDOR, BRET): 40.4 nM
- G-Protein activation pEC50 ± SEM ([15]; mDOR, BRET): 7.4 ± 0.20
- Emax ([15]; read-out: G-Protein activation Emax % ± SEM): 105 ± 5.9%
- EC50 (hDOR [16]; hDOR): 74.2 nM
- cAMP inhibition pEC50 ± SEM (hDOR [16]; hDOR): 7.1 ± 0.08
- Emax (hDOR [16]; read-out: cAMP inhibition Emax % ± SEM): 71 ± 2.4%
- Arrestin recruitment pEC50 ± SEM (hDOR [17]; hDOR, Tango): 6.6 ± 0.06
- EC50 (hDOR [17]; hDOR, Tango): 228 nM
- Emax (hDOR [17]; read-out: Arrestin recruitment Emax % ± SEM): 89 ± 2.8%
